A short description of the series: Solubility of the thiolysine-modified peptides in the ligation buffer. Format: physicochemical. The settings on record: Tris-HCl pH 7.5 buffer used during the ligation reaction. The source says:
This is not surprising as this peptide is made up for ≈50% of hydrophobic amino acids and contains 3 beta-strands in the native PCNA protein (see Supporting Information). Besides performing the ubiquitin ligations with an excess of peptide (rxn 1-3 and 6-16, FIGS. 6 and 7), it was also observed that the use of (roughly) equimolar amounts of ubiquitin and peptide (rxn 4, 5 FIG. 6 and FIGS. 8-10) allowed ligation. In order to be able to develop the here presented ligation methodology for solid phase peptide synthesis, with the peptide being anchored to the solid support, it is important to fully consume all peptide. In order to confirm that a polar organic solvent is compatible with the reaction conditions, we repeated the ubiquitin ligation of the H2B peptide TKAVTK*YTSSK, using a DMSO stock of the peptide, up to a final concentration of 10% DMSO (rxn 14-16, FIG. 7).

As for “GDAWISC*AK*DGVKFSASGELGNGNIKLSQ [Peptide 1]”, the solubility result was “only soluble in polar organic solvents such as DMF and DMSO”.

(Values after patent publication US8729009B2, “Lysine compounds and their use in site- and chemoselective modification of peptides and proteins” (Stichting Het Nederlands Kanker Instituut, priority 2009, dated 2014).)
